{"source": "patent US5945417A", "about": "“Heterocyclic compounds, their preparation and use” (priority 1995, dated 1999)", "origin": "cited, not measured here", "key": {"[1]": {"system": "metabotropic glutamate receptors", "conditions": "literature"}, "[2]": {"system": "trans ACPD stimulated phosphoinositide hydrolysis", "conditions": "literature"}, "mGluR1α": {"system": "mGluR1α", "conditions": "1 mM quisqualate or glutamate; BHK cells expressing mGluR1α"}, "MCAO model in mice": {"system": "MCAO model in mice", "conditions": "literature"}, "nerve cell cultures": {"system": "nerve cell cultures", "conditions": "literature"}, "[3]": {"system": "release of dopamine in the rat brain", "conditions": "literature"}, "control BHK cells": {"system": "control BHK cells", "conditions": "1 mM quisqualate or glutamate"}}, "data": [{"compound": "Cc1onc(O)c1CC(N)C(=O)O", "note": "(stereo not shown) [AMPA]", "values": [{"measurement": "action on the metabotropic glutamate receptors", "setting": "[1]", "value": "little effect"}]}, {"compound": "N[C@H](C(=O)O)c1ccc(C(=O)O)c(O)c1", "note": "[Compound S-4C3HPG, S-4-carboxy-3-hydroxyphenyl glycine]", "values": [{"measurement": "antagonism of trans ACPD stimulated phosphoinositide hydrolysis", "setting": "[2]", "value": "antagonise trans ACPD stimulated phosphoinositide hydrolysis"}]}, {"compound": "N[C@H](C(=O)O)c1ccc(C(=O)O)cc1", "note": "[Compound S-4CPG, S-4-carboxyphenyl glycine]", "values": [{"measurement": "antagonism of trans ACPD stimulated phosphoinositide hydrolysis", "setting": "[2]", "value": "antagonise trans ACPD stimulated phosphoinositide hydrolysis"}]}, {"compound": "N[C@@H](CP(=O)(O)O)C(=O)O", "note": "[L-AP3, L-2-amino-3-phosphonopropionic acid]", "values": [{"measurement": "action on the metabotropic glutamate receptors", "setting": "[1]", "value": "partial agonist"}]}, {"compound": "N[C@@H](CCC(=O)O)C(=O)O", "note": "[L-glutamate]", "values": [{"measurement": "fold increase over basal Pl-hydrolysis", "setting": "mGluR1α", "value": "6-8 fold"}]}, {"compound": "CN[C@H](CC(=O)O)C(=O)O", "note": "[NMDA]", "values": [{"measurement": "action on the metabotropic glutamate receptors", "setting": "[1]", "value": "little effect"}]}, {"compound": "C[C@@](N)(C(=O)O)c1ccc(C(=O)O)cc1", "note": "[S-MCPG, S-alpha methyl4-carboxyphenyl glycine]", "values": [{"measurement": "antagonism of trans ACPD stimulated phosphoinositide hydrolysis", "setting": "[2]", "value": "antagonise trans ACPD stimulated phosphoinositide hydrolysis"}]}, {"compound": "N[C@@]1(C(=O)O)CC[C@@H](C(=O)O)C1", "note": "[Trans-ACPD, trans 1S,3R-1-aminocyclopentane-1,3-dicarboxylicacid]", "values": [{"measurement": "action on the metabotropic glutamate receptors", "setting": "[1]", "value": "selectively activated"}, {"measurement": "neuroprotection in an MCAO model in mice", "setting": "MCAO model in mice", "value": "neuroprotective agent"}, {"measurement": "inhibition of NMDA induced neurotoxicity", "setting": "nerve cell cultures", "value": "inhibit NMDA induced neurotoxicity"}, {"measurement": "release of dopamine in the rat brain", "setting": "[3]", "value": "increase release of dopamine in the rat brain"}]}, {"compound": "NC(C(=O)O)c1cc(O)no1", "note": "(stereo not shown) [ibotenate]", "values": [{"measurement": "action on the metabotropic glutamate receptors", "setting": "[1]", "value": "non-selective agonists"}]}, {"compound": "C=C(C)[C@H]1CN[C@H](C(=O)O)[C@H]1CC(=O)O", "note": "[kainate]", "values": [{"measurement": "action on the metabotropic glutamate receptors", "setting": "[1]", "value": "little effect"}]}, {"compound": "N[C@@H](Cn1oc(=O)[nH]c1=O)C(=O)O", "note": "[quisqualate]", "values": [{"measurement": "fold increase over basal Pl-hydrolysis", "setting": "mGluR1α", "value": "6-8 fold"}, {"measurement": "stimulation in control BHK cells", "setting": "control BHK cells", "value": "no stimulation"}, {"measurement": "action on the metabotropic glutamate receptors", "setting": "[1]", "value": "non-selective agonists"}]}]}
